Inhibition data for 2 molecules are collected here from paper PMC4076210, “Discovery of Novel AKT Inhibitors with Enhanced Anti-Tumor Effects in Combination with the MEK Inhibitor” (PLoS ONE, 2014).

Molecules are shown by their SMILES. Like-named read-outs stand apart in the source and are kept apart here.

Holding throughout (assay): Kinase panel
Format in all cases: biochemical

The target of one test is T1, Abl (H396P) (h) (Homo sapiens, UniProt P00519, H396P).
T1 construct: purchased Millipore KinaseProfiler

In a further test the target is T2, Arg(m) (Mus musculus, UniProt Q4JIM5).
T2 construct: purchased Millipore KinaseProfiler
T2 sequence (Q4JIM5 2-1182 limits assumed): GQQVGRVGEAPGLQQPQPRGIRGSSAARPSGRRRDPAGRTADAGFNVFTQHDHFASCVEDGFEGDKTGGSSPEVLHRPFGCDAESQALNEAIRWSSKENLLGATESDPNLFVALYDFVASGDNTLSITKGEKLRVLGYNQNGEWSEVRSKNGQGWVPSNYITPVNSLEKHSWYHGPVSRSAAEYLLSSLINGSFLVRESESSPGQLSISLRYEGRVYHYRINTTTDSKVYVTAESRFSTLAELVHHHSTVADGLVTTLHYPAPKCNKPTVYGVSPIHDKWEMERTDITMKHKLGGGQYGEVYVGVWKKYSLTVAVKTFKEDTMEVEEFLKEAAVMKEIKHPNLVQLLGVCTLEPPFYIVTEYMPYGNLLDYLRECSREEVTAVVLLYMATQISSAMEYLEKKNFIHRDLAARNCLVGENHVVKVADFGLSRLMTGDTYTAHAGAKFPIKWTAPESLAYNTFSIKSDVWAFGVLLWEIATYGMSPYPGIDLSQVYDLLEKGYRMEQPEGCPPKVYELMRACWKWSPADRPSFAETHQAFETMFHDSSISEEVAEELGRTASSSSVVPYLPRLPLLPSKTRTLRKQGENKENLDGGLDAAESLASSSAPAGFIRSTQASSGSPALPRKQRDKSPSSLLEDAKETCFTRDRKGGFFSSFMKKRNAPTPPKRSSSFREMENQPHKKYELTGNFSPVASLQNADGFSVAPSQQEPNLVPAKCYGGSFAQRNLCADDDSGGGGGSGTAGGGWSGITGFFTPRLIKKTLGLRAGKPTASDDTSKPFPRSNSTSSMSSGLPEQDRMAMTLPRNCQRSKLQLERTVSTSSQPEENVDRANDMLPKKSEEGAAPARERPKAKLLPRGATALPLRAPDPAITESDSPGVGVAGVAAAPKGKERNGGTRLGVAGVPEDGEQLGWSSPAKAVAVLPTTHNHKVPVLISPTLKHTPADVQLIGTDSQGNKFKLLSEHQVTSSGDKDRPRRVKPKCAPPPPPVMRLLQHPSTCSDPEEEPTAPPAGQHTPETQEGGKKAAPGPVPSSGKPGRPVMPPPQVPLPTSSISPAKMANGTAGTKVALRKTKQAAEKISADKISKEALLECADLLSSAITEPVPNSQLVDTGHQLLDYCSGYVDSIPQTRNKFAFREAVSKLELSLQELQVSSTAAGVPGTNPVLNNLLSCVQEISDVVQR

For the next test, the target named is T3, EphB2(h) (Homo sapiens, UniProt P29323).
T3 construct: purchased Millipore KinaseProfiler
T3 sequence (P29323 19-1055): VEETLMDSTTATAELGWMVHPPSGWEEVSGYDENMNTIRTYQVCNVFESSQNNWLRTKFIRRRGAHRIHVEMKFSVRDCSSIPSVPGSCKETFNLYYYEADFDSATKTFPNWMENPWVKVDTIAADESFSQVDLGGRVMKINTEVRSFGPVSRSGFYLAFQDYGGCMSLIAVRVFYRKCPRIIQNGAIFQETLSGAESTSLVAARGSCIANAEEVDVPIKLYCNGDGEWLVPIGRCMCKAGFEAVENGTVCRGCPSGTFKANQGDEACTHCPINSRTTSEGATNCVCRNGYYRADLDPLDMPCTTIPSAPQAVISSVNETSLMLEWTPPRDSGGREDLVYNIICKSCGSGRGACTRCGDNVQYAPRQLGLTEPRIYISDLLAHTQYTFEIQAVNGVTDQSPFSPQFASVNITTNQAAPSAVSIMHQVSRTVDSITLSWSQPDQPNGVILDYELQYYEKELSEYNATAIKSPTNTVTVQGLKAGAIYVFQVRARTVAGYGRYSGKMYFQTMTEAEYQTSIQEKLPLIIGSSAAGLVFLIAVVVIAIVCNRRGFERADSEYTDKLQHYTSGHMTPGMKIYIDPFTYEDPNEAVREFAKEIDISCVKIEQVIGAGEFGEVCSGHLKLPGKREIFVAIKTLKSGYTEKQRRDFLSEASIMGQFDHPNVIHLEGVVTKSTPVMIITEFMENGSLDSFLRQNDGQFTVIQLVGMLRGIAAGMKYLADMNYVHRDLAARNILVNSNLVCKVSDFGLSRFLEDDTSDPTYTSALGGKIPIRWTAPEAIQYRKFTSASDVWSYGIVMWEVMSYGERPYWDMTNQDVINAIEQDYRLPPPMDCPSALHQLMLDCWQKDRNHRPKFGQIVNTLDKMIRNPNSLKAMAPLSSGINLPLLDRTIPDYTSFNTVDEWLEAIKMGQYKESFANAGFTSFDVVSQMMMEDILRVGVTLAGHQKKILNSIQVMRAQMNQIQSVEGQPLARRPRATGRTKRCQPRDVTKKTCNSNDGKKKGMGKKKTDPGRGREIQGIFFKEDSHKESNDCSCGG

The target in the next test is T4, FGFR2(N549H)(h) (Homo sapiens, UniProt P21802, N549H).
T4 construct: purchased Millipore KinaseProfiler
T4 sequence (P21802 22-821 N549H): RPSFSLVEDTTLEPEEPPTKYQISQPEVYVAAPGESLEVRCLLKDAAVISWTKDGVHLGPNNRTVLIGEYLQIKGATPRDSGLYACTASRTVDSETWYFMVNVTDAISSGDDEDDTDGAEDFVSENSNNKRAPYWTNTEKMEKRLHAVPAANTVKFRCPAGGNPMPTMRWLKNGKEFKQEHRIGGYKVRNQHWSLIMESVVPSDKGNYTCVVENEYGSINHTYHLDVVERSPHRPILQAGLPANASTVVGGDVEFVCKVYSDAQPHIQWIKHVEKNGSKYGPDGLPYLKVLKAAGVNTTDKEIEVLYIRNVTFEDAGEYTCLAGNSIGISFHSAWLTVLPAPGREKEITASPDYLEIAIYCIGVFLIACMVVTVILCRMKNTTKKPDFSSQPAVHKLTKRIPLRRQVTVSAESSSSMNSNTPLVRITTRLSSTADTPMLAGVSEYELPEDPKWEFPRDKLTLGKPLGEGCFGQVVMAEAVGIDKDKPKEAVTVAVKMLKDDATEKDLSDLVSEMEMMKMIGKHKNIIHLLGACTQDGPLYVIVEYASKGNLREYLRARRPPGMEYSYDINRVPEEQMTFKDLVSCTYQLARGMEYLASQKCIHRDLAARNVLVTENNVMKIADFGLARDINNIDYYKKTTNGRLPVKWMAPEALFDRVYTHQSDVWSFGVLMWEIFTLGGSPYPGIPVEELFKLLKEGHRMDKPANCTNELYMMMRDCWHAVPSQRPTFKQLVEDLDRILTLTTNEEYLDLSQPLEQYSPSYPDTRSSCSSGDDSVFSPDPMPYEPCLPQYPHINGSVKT

The next test concerns the target T5, HIPK3(h) (Homo sapiens, UniProt Q9H422).
T5 construct: purchased Millipore KinaseProfiler

The target in a further test is T6, IKKβ(h) (Homo sapiens, UniProt O14920).
T6 construct: purchased Millipore KinaseProfiler
T6 sequence (O14920 1-756): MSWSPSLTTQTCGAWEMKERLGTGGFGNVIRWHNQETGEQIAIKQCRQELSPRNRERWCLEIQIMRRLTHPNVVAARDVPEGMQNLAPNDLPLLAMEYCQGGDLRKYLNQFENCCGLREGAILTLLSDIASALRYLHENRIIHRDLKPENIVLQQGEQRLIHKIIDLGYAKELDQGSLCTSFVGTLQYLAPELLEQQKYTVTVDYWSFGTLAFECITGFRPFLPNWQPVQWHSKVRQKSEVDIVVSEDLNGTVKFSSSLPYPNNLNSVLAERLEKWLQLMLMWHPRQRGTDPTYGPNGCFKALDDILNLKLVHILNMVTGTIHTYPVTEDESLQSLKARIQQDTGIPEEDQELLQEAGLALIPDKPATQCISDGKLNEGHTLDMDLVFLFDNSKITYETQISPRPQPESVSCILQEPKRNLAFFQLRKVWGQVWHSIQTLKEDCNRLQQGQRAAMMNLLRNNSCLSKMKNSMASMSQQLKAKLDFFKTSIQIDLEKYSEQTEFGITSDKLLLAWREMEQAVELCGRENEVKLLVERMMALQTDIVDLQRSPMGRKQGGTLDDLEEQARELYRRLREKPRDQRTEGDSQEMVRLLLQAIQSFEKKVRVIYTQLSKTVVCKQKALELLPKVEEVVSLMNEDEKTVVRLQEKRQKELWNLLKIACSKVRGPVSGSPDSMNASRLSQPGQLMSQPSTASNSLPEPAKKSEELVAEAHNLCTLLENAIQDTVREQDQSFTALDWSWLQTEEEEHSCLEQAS

A further test deals with T7, PhKγ2(h) (Homo sapiens, UniProt P15735).
T7 construct: purchased Millipore KinaseProfiler
T7 sequence (P15735 1-406): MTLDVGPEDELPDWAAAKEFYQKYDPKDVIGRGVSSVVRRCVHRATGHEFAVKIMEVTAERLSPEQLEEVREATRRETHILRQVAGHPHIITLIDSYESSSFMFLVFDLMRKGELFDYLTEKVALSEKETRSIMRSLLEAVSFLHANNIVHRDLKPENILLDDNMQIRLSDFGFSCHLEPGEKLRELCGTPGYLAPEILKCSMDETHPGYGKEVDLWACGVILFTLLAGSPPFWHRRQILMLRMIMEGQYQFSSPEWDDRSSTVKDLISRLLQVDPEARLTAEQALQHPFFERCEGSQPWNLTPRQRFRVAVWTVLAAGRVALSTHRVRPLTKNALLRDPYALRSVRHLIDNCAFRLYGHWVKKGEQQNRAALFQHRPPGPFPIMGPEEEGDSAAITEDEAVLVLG

The next test deals with T8, PKCγ(h) (Homo sapiens, UniProt P05129).
T8 construct: purchased Millipore KinaseProfiler

The next test concerns the target T9, Ret(V804M)(h) (Homo sapiens, UniProt P07949, V804M).
T9 construct: purchased Millipore KinaseProfiler

T5 sequence (Q9H422 whole entry): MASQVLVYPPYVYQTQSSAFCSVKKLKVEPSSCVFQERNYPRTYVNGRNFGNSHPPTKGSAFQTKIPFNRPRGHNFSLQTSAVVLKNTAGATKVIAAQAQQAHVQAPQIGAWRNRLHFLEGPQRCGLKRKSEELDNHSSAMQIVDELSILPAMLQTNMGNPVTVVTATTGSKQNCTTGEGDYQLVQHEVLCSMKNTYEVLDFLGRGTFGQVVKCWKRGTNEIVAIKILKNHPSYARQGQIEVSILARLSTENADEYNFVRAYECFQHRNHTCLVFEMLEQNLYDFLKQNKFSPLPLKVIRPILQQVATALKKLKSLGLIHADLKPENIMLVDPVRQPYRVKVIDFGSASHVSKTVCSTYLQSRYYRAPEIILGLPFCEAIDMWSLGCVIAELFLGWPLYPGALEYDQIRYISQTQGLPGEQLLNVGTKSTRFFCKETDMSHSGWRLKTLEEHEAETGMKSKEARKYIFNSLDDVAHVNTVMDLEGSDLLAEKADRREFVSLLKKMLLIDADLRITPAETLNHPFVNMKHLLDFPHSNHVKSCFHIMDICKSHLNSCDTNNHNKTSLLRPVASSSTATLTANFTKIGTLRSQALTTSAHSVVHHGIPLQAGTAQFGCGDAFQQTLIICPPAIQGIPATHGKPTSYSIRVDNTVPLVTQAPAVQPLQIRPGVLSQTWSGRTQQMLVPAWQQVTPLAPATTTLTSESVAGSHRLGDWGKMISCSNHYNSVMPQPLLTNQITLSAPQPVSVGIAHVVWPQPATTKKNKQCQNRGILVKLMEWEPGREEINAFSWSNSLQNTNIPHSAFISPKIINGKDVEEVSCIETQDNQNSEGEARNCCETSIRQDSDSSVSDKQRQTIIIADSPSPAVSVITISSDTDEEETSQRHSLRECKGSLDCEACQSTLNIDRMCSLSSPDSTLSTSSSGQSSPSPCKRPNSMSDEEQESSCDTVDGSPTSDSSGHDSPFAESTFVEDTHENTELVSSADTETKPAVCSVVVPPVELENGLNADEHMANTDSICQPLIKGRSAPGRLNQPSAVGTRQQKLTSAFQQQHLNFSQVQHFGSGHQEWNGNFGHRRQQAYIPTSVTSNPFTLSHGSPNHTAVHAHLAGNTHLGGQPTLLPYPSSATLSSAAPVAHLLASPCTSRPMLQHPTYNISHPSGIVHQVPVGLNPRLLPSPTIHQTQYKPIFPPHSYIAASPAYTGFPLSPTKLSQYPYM
T9 sequence (P07949 29-1114 V804M): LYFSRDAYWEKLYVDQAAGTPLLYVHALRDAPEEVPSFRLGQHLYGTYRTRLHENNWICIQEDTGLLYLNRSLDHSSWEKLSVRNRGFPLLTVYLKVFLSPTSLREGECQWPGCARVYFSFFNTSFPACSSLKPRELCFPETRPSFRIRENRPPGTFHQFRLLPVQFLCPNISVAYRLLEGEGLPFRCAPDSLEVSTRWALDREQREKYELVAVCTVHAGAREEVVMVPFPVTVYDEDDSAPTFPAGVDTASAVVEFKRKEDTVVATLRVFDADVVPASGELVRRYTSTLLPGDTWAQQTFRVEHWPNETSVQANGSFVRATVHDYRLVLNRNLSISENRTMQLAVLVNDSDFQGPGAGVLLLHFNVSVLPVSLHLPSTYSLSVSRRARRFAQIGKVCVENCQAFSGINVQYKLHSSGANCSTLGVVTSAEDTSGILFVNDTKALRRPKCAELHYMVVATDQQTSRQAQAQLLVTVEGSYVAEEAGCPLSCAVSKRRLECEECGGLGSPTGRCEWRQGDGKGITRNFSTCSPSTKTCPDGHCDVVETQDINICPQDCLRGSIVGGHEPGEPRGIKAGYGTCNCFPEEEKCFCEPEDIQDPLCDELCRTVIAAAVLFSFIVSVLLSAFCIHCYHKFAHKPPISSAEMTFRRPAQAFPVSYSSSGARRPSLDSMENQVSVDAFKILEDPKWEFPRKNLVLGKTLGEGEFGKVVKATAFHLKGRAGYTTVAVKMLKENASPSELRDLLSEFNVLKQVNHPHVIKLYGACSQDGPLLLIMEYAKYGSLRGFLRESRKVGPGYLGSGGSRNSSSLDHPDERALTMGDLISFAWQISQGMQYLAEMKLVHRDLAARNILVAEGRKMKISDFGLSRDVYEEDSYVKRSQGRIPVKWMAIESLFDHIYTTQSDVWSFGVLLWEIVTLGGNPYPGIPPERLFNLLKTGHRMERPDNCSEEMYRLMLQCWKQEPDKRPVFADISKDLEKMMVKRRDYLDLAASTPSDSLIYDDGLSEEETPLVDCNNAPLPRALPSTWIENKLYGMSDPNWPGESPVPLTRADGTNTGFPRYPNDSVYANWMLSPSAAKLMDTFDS

In general, inhibition refers to the relative decrease from the control value, in per cent. On to `Cn1ncc(Cl)c1-c1cc(C(=O)N[C@H](CN)Cc2cccc(F)c2)sc1Cl` [GSK2110183], for which the inhibition at 0.5 µM against Abl (H396P) (h) is -2%; at Arg(m) it was -1%; at EphB2(h), -8%; at FGFR2(N549H)(h) it was -1%; at HIPK3(h), -3%; against IKKβ(h), 5%. Also, the results for the inhibition at 0.5 µM against PhKγ2(h), on PKCγ(h) and at Ret(V804M)(h) were 31%, 39% and 5%, respectively. Also, the inhibition at 10 µM at Abl (H396P) (h) was 10%; at Arg(m), 1%; against EphB2(h), 4%; on FGFR2(N549H)(h) it was -1%; on HIPK3(h), 72%; against IKKβ(h) it was 18%. In addition, the inhibition at 10 µM on PhKγ2(h) was 89%; on PKCγ(h), 90%; on Ret(V804M)(h), 26%.

Take `Cn1ncc(Cl)c1-c1cc(C(=O)N[C@H](CN)Cc2ccc(F)c(F)c2)oc1Cl` [GSK2141795]: the inhibition at 0.5 µM on Abl (H396P) (h) (0.5 µM, read-out: % Inhibition) is 4%; on Arg(m) (0.5 µM, read-out: % Inhibition), -1%; at EphB2(h) (0.5 µM, read-out: % Inhibition), -8%; at FGFR2(N549H)(h) (0.5 µM, read-out: % Inhibition) it was -2%; at HIPK3(h) (0.5 µM, read-out: % Inhibition), 7%; on IKKβ(h) (0.5 µM, read-out: % Inhibition), -2%. Besides, the inhibition at 0.5 µM on PhKγ2(h) (0.5 µM, read-out: % Inhibition) is 23%; on PKCγ(h) (0.5 µM, read-out: % Inhibition) it was 63%; on Ret(V804M)(h) (0.5 µM, read-out: % Inhibition), -2%. The inhibition at 10 µM is 1% on Abl (H396P) (h) (10 µM, read-out: % Inhibition); 7% on Arg(m) (10 µM, read-out: % Inhibition); 0% on EphB2(h) (10 µM, read-out: % Inhibition); -5% at FGFR2(N549H)(h) (10 µM, read-out: % Inhibition); 63% at HIPK3(h) (10 µM, read-out: % Inhibition); 13% on IKKβ(h) (10 µM, read-out: % Inhibition). Also, the inhibition at 10 µM came out at 88% on PhKγ2(h) (10 µM, read-out: % Inhibition); 95% on PKCγ(h) (10 µM, read-out: % Inhibition); 25% on Ret(V804M)(h) (10 µM, read-out: % Inhibition).
